In publication PMC7810697, “Sarcolipin alters SERCA1a interdomain communication by impairing binding of both calcium and ATP” (Scientific Reports, 2021):
Values joined by “and” are separate entries in the source; they are usually repeats but may differ in a detail not shown here. Equal values may be shown once. One block for each molecule: values may come before it. Ends that are not written are not given here.

What was measured:
[1] = system: SERCA1a; conditions: deacylation with hydroxylamine; steady state; in membrane or after solubilization by C12E8; cited from earlier work
From the text: Effect on the turnover is less clear as it seems to highly depend on the system used for functional characterization. […] This post-translational modification is also present in pig SLN and presumably in a few other mammals and birds, as judged from the amino-acid sequences. Among the other hundred seq ...

[2] = target: T1, recombinant SERCA1a (recS1a) (Oryctolagus cuniculus, UniProt P04191); experiment: Vanadate inhibition of phosphoenzyme formation, recS1a; assay type: biochemical, rabbit (expressed in S. cerevisiae); conditions: absence of pSLN, phosphorylation 30 s at 0 °C, three independent experiments
T1 construct: BAD (biotin acceptor domain) (C, cleaved yes); made in house; host or cells: Saccharomyces cerevisiae
Protocol: (§1) Transient formation of the phosphoenzyme intermediate was measured after incubation with [γ^32P]ATP followed by acid quenching, and filtration. For most experiments, 50 µL of enzyme at 10 µg/mL in a buffer containing 50 mM Tes-Tris pH7.5, 1 mM KCl, 5 mM MgCl2, 20% glycerol (w/w) and 0.5 mg/mL DDM, supplemented or not with SLN, was stored on ice. Concentrations of EGTA and calcium are specified in figure legends in order to reach the appropriate [Ca^2+]free and therefore the desired starting state for the ATPase. For kinetics of phosphorylation, we initiate reaction by addition of 2 µM [γ^32P]ATP (5 mCi/µmole), and calcium at 100 µM when specified. Reaction was quenched by addition of 2 mL of cold quenching medium (500 mM TCA + 30 mM H3P0_4) under vigorous mixing, and immediately stored on ice for 20–30 min to improve precipitation, a period of time critical for retention of the precipitate on the filter in presence of detergent. This was followed by filtration on GS filters (Millipore, Saint Quentin-Fallavier, France) and careful rinsing of the filters with diluted quenching medium (50 mM TCA + 3 mM H3P0_4). The amount of radioactivity bound to the filter was estimated by liquid scintillation counting (Perkin Elmer TriCarb Counter). When starting from a calcium-deprived state (Fig. 4C,D), EGTA was added only one minute before starting phosphorylation to limit irreversible inactivation of the solubilized ATPase, although the presence of glycerol helps in protecting the enzyme from irreversible inactivation. For dephosphorylation kinetics, 1 mM “cold” Mg.ATP was added after a 30 s period of phosphorylation. For Ca^2+-dependency, we adjust the concentration of free calcium according to the Ca.EGTA constant as mentioned above, before triggering phosphorylation. […] Phosphorylations were done at 0 °C especially for inhibition by vanadate to prevent dissociation of vanadate and limit irreversible inactivation in absence of calcium.

[3] = system: SERCA1a; conditions: cited from earlier work
From the text: (§2) Besides its various roles in protein signalling and addressing, palmitoylation can also regulate oligomerisation processes of membrane proteins. Recent work has shown that other P-type ATPases regulatory subunits like phospholamban (PLB) and phospholemman (PLM) are palmitoylated[16],[17]. Acylation of PLB and PLM is functionally relevant by having an impact on the oligomerisation of the peptides, their association with their dedicated pumps (Ca^2+-ATPase or Na+, K+-ATPase, respectively) and on their lifetime.

[4] = system: protein kinase A (PKA); conditions: cited from earlier work
From the text: as §2

[5] = system: protein phosphatase 1a (PP1a); conditions: cited from earlier work
From the text: as §2

[6] = system: recombinant purified SERCA1a (recS1a); experiment: Limited proteolysis with proteinase K (SDS-PAGE); assay type: biochemical, rabbit (expressed in S. cerevisiae); conditions: DDM-solubilized SR; 5 min profile similar to 60 min in native lipids
Protocol: Yeast-expressed and purified SERCA1a (recS1a) was supplemented with SLN at a mole:mole ratio of 1:10 recS1a:SLN. In absence of SLN, recS1a was supplemented with 0.07 mg/mL C12E8, an amount that corresponds to the detergent brought with chemically synthesized SLN. After 30 min at 20 °C, samples were supplemented with either 1.1 mM EGTA (Ca^2+free ~ 1 mM), or 50 mM EGTA (Ca^2+free ~ 150 nM) and 0.01 mg/mL Tg. After an additional incubation for 10 min at 20 °C, proteolysis was achieved by addition of 0.3 mg/mL proteinase K. Proteolysis was stopped by addition of 1 mM PMSF and incubation on ice for 10 min. After proteolysis arrest, samples were diluted twice in a 4 M-urea containing denaturation buffer, boiled for 60 s, and about 0.75 µg protein were loaded on a 9% SDS-PAGE prepared in the presence of 1 mM Ca^2+[32]. After electrophoresis, gels were stained with Coomassie blue.

[7] = target: T1, recombinant SERCA1a (recS1a); experiment: Mg.ATP binding by tryptophan fluorescence; parameters: species or system rabbit (expressed in S. cerevisiae)
Protocol: (§3) Intrinsic fluorescence of SERCA1a was measured with a SPEX Fluorolog spectrofluorometer (Horiba/Jobin–Yvon, Longjumeau, France) as described before. Briefly, signals were monitored with excitation and emission wavelength set at 295 and 320 nm, with bandwidths of 2 and 10 nm, respectively. Changes in tryptophan fluorescence were recorded at 20 °C after dilution of protein samples to a final concentration of about 6–7.5 µg/mL into a medium containing 50 mM MOPS-Tris pH 7, 100 mM KCl, 5 mM MgCl2, 20% glycerol (v/v) and 10 mg/mL DDM. In presence of SLN, recS1a and SLN were first mixed together and incubate for 1 h on ice before measurement. In absence of SLN, recS1a is supplemented with 0.07 mg/mL C12E8 to compensate the detergent present with SLN. The Maxchelator program was used for estimating [Ca^2+]free[59] (program available at https://somapp.ucdmc.ucdavis.edu/pharmacology/bers/maxchelator/downloads.htm). The dissociation constant of the Ca.EGTA complex was taken to be 0.4 µM at pH7 and was assumed to be the same in the presence of glycerol.

[8] = target: T1, recombinant SERCA1a (recS1a); experiment: Calcium binding at equilibrium by tryptophan fluorescence; parameters: species or system rabbit (expressed in S. cerevisiae); conditions: absence of pSLN, average of three independent experiments
Protocol: as §3

[9] = target: T1, recombinant SERCA1a (recS1a); experiment: Steady-state ATPase activity, enzyme-coupled assay; assay type: biochemical, rabbit (expressed in S. cerevisiae); conditions: absence of pSLN; steady state, NADH-coupled assay; three independent experiments
Protocol: resuspended in a large volume of pure water and lyophilized to evaporate most of the TFA. The rinsed powder was then suspended in presence of 10 mM HCl to exchange the anionic residual TFA that may interact with the positive charges of the peptide for chloride. This suspension was lyophilized again.
Three additional cycles of – dissolving in pure water / lyophilisation – will allow to eliminate traces of TFA and to get back to a pH compatible with functional tests. For final solubilisation of SLN in detergent, powder was then dissolved in 50% TFE and an amount of detergent to reach a 100:1 mole:mole detergent:SLN ratio. Here, we used C12E8 as it is fully compatible with functional characterization of SERCA1a 23. This suspension was then lyophilized again to evaporate TFE.
Sarcolipins (Palm-SLN or SLN) were finally resuspended at 0.8 mg/mL (about 200 µM) in a 10 mM potassium phosphate buffer pH 7.4, in the presence of 2.5 mg/mL C12E8.
Expression and Purification of recombinant SERCA1a (recS1a)
The yeast expression plasmid pYeDP60-SERCA1a-BAD (WT) and expression in Saccharomyces cerevisiae was described previously 30. Yeast membranes were solubilized by DDM for subsequent purification of recombinant Ca2+-ATPase by Streptavidin affinity chromatography 31. Purified recombinant SERCA1a was recovered in a buffer containing 50 mM MOPS-Tris pH7, 100 mM KCl, 5 mM MgCl2, 2.1 mM CaCl2, 40 % glycerol (v/v) and 0.5 mg/mL DDM, together with some thrombin remaining from the elution procedure. The protein concentration in the purified fraction was in the 0.05 to 0.15 mg/mL range depending on the batch. […]
Steady-state ATPase activity measurements
Measurements were performed using classical enzyme coupled assay. We measured the rate of NADH oxidation in the presence of 0.1 mg/mL lactate deshydrogenase, 0.05 mg/mL pyruvate kinase, 1 mM phosphoenolpyruvate, 0.25 mM NADH (protocol was adapted from 22) and in the additional presence of 2 mg/mL C12E8 to limit time-dependent inactivation of the purified SERCA1a 20,23.

[10] = target: T1, recombinant SERCA1a (recS1a); experiment: Calcium dependence of phosphoenzyme level; assay type: biochemical, rabbit (expressed in S. cerevisiae); conditions: absence of pSLN, five independent experiments
Protocol: as §1

T1 sequence (P04191 1-994 isoform P04191-2): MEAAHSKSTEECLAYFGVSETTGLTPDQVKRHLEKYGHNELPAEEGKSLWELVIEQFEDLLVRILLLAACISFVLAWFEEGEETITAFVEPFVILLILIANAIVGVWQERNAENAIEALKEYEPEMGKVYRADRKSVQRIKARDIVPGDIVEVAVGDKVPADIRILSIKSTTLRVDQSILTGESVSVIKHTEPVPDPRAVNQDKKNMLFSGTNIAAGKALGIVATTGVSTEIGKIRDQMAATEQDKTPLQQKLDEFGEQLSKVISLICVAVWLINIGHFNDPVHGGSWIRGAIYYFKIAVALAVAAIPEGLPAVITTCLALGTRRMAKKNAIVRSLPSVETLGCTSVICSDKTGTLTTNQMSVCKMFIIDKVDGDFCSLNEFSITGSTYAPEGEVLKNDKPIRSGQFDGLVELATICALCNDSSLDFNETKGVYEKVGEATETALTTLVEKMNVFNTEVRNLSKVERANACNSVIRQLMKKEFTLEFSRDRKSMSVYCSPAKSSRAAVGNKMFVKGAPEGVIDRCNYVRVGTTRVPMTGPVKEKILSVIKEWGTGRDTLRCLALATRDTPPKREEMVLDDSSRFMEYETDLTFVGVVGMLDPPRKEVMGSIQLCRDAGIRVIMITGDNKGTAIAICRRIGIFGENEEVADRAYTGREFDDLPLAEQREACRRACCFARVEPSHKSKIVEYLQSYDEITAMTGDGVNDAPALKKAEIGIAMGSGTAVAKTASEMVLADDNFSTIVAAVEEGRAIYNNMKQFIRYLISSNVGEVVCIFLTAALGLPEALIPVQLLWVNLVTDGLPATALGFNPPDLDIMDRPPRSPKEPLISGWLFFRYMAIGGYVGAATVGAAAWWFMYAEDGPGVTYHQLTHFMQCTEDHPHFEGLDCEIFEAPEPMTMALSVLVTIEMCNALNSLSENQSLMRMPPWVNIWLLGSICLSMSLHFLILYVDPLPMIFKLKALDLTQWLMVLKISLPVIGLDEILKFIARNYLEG

Molecule: native SLN: native rabbit sarcolipin, S-palmitoylated or S-oleoylated on Cys9, co-purified with SERCA1a from SR (MERSTRELCLNFTVVLITVILIWLLVRSYQY; also: Cys9 S-palmitoylated or S-oleoylated; UniProt P42532 1-31, looked up)
effect of deacylation of native SLN on affinity for calcium and Vmax [1]: no effect

Molecule: PLB: phospholamban, 52 amino-acid long, with a transmembrane helix and a long cytosolic extension
effect of PLB phosphorylation on SERCA1a inhibition [3]: release of SERCA1a inhibition without its full dissociation from the pump | effect of PLB palmitoylation (Cys 36) on PKA affinity [4]: increases affinity for protein kinase A (PKA) | effect of PLB palmitoylation (Cys 36) on PP1a affinity [5]: reduces affinity for protein phosphatase 1a (PP1a)

The next lines start with the values.

K1/2 (K0.5) for vanadate inhibition, recS1a alone [2]: 1.43 ± 0.08 µM | K1/2 (K0.5) for vanadate inhibition, recS1a alone ([2]; listed as vanadate): 1.43 ± 0.08 µM
Molecule: [O]=[V]([O-])([O-])[O-] [orthovanadate, reference compound]

effect of detergent on proteinase K proteolysis [6]: significantly accelerates proteolysis
Molecule: CCCCCCCCCCCCO[C@@H]1O[C@H](CO)[C@@H](O[C@H]2O[C@H](CO)[C@@H](O)[C@H](O)[C@H]2O)[C@H](O)[C@H]1O [DDM, n-dodecyl β-D-maltopyranoside, reference compound]

Mg-ATP1/2 (affinity for Mg.ATP), recS1a alone ([7]; absence of pSLN, calcium-deprived (2 mM EGTA), pH 7, 20 °C, DDM, 20% glycerol, three independent experiments): 3 µM and 3.00 ± 0.12 µM | nH for Mg.ATP, recS1a alone ([7]; absence of pSLN, three independent experiments): 0.99 ± 0.04 | Mg.ATP concentration sufficient to saturate the SERCA1a site ([7]; in absence of SLN, not in its presence): about 30 µM
Molecule: Nc1ncnc2c1ncn2[C@@H]1O[C@H](COP(=O)(O)OP(=O)([O-])OP(=O)([O-])O)[C@@H](O)[C@H]1O.[Mg+2] [Mg.ATP, reference compound]

Ca1/2 (tryptophan fluorescence), recS1a alone ([8]; at equilibrium, pH 7, 20 °C, DDM, 20% glycerol): 2.94 ± 0.30 µM and 2.9 µM | nH for calcium (tryptophan fluorescence), recS1a alone [8]: 1.67+/-0.25 | Ca1/2 (ATPase activity), recS1a alone [9]: 0.15 ± 0.08 µM | nH for calcium (phosphoenzyme level), recS1a alone [10]: 0.54 ± 0.02 | Ca1/2 (phosphoenzyme level), recS1a alone ([10]; phosphorylation 15 s): 0.33 ± 0.03 µM and 0.33 µM
Molecule: [Ca+2] [calcium]
